In PMC4415882 (Biochemistry, 2013) one finds Ki data, which are given here for one compound.

The target of assay [1] is NPP (nucleotide pyrophosphatase/phosphodiesterase) (Xanthomonas citri, UniProt A0A0U5FM15, L123A). The note with it: read-out: average; average over substrates pNPP, Me-pNPP, bis-pNPP, dT-5'-pNPP (subsaturating); 0.1 M Tris-HCl pH 8.0, 0.5 M NaCl, 100 µM ZnCl2, 25 °C; competitive.
Assay [2] concerns the target NPP (nucleotide pyrophosphatase/phosphodiesterase) (Xanthomonas citri, UniProt A0A0U5FM15, T90S). The note with it: read-out: average; average over substrates pNPP, Me-pNPP, bis-pNPP, dT-5'-pNPP (subsaturating); 0.1 M Tris-HCl pH 8.0, 0.5 M NaCl, 100 µM ZnCl2, 25 °C; competitive.

As to `[O]=[V]([OH])([OH])[OH]` [vanadate], the figures for the Ki in assay [1] and in assay [2] were 154 ± 8 µM and 340 ± 140 µM, respectively.
